{"source": "patent US7928236B2", "about": "“Fluorescent amino acid derivatives” (National University Corporation Okayama University, priority 2005, dated 2011)", "key": {"Fluorescence lifetime": {"assay": "Fluorescence lifetime", "type": "physicochemical", "details": "50 mM PBS (pH7.0), 3×10^−4M, room temperature, excitation 415 nm, measured at 500 nm", "procedure": "Boc-badAla-OH prepared in Example 2 was dissolved in 50 mM PBS (pH7.0) in a concentration of 3×10^−4M, and fluorescence intensity was measured at room temperature at 500 nm, setting the excitation wavelength at 415 nm of blue laser from a simple-type beam system, using Hamamatsu “microchannel photomultiplier tube” supplied by Hamamatsu Photonics K.K. which was cooled to −30° C., and then fluorescence lifetime was measured.\nAs a result, the obtained fluorescence lifetime was τ=16.6 nanoseconds.\nWhile the lifetime of BODIPY, a commercial product, was 5.7 nanoseconds (MeOH) on the literature, and that of FITC was 4.1 nanoseconds (0.01M NaOH) on the literature. The other primary spectroscopic properties of fluorescent probes were listed on the homepage of IOM GmbH (see, www.iom-berlin.de)."}, "Absorption spectrum": {"assay": "Absorption spectrum", "type": "physicochemical", "details": "in ethanol, water and ethanol/water (6:4), 2.3×10^−5M, room temperature", "procedure": "Boc-badAla-OH prepared in Example 2 was dissolved respectively in ethanol, water and a mixture of ethanol and water (6:4) in a concentration of 2.3×10^−5M, and their absorption spectra were measured at room temperature using JASCO “V560” supplied by JASCO Corporation."}, "Photostability": {"assay": "Photostability", "type": "physicochemical", "details": "water, 1.2×10^−6M, room temperature, continuous 468 nm irradiation for an hour", "procedure": "Boc-badAla-OH prepared in Example 2 was dissolved in water in a concentration of 1.2×10^−6M, and photostability was examined at room temperature using ISA “FluoroMax-2” analyzer, irradiating a beam of 468 nm excitation wavelength continuously for an hour. As a result, […] an hour after the irradiation, it held 95% fluorescence intensity of that at the start of the experiment (FIG. 6). […] On the other hand, values of commercial products BODIPY and FITC shown on the literature, obtained by dissolving them respectively in TBS buffer for measurement on FluoroMax, were respectively 88% and 85%."}, "[1]": {"details": "TBS buffer, measured on FluoroMax, values on the literature; cited from earlier work"}, "[2]": {"details": "0.01M NaOH, on the literature; cited from earlier work"}}}
{"compound": "CC(C)(C)OC(=O)NC(Cc1ccc2[nH]c3cc4ccccc4cc3c(=O)c2c1)C(=O)O", "note": "(centres unmarked) [Boc-badAla-OH]", "values": [{"measurement": "fluorescence lifetime τ", "setting": "Fluorescence lifetime", "result": 16.6, "unit": "nanoseconds"}, {"measurement": "maximum absorption wavelength", "setting": "Absorption spectrum", "result": "around 460 nm"}, {"measurement": "fluorescence intensity held relative to start of experiment", "setting": "Photostability", "result": 95, "unit": "%"}]}
{"compound": "O=C1OC2(c3ccc(O)cc3Oc3cc(O)ccc32)c2ccc(N=C=S)cc21", "note": "[FITC]", "values": [{"measurement": "photostability (fluorescence intensity held)", "setting": "[1]", "result": 85, "unit": "%"}, {"measurement": "fluorescence lifetime", "setting": "[2]", "result": 4.1, "unit": "nanoseconds"}]}
